{
  "source": "paper PMC7909954",
  "about": "(eLife, 2021)",
  "key": {"[1]": {"biological_target": "T1, mDOR (Mus musculus, UniProt P32300)", "T1 sequence (P32300 whole entry)": "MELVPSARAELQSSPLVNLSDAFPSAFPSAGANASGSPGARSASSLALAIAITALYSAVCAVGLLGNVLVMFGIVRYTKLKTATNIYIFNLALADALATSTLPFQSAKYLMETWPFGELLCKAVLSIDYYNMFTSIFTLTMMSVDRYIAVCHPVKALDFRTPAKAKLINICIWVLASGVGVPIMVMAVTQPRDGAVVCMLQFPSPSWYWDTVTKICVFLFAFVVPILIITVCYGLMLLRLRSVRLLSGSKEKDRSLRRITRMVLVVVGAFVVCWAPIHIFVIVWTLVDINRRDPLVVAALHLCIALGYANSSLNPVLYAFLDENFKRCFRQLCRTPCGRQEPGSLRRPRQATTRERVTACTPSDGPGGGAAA", "assay": "biochemical", "conditions": "read-out: Emax mDOR [35S]GTPγS"}, "[2]": {"biological_target": "T1, mDOR", "assay": "cell-based"}, "[3]": {"biological_target": "T2, KOR (Homo sapiens, UniProt P41145)", "T2 sequence (P41145 whole entry)": "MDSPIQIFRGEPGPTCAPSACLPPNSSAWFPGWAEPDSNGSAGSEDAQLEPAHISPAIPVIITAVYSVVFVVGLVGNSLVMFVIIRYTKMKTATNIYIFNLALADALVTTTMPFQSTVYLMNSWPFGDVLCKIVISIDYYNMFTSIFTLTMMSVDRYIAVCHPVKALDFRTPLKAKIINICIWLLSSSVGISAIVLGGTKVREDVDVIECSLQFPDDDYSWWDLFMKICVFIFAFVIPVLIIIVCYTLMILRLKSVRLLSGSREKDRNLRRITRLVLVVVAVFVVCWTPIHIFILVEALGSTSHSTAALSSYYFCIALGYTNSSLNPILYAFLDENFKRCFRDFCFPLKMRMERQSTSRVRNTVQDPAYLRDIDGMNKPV", "assay": "cell-based"}, "[4]": {"biological_target": "T3, mKOR (Mus musculus, UniProt P33534)", "T3 sequence (P33534 whole entry)": "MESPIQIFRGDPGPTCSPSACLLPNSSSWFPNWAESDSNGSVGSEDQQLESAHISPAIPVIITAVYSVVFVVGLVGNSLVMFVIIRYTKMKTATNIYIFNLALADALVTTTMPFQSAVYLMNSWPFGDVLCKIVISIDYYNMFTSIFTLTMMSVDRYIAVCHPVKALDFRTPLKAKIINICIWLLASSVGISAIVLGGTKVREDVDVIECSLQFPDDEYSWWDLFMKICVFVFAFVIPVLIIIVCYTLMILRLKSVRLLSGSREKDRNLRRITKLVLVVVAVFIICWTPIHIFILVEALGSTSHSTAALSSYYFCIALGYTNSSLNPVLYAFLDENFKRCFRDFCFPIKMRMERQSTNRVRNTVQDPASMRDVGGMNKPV", "assay": "biochemical"}, "[5]": {"biological_target": "T4, mMOR (Mus musculus, UniProt P42866)", "T4 sequence (P42866 whole entry)": "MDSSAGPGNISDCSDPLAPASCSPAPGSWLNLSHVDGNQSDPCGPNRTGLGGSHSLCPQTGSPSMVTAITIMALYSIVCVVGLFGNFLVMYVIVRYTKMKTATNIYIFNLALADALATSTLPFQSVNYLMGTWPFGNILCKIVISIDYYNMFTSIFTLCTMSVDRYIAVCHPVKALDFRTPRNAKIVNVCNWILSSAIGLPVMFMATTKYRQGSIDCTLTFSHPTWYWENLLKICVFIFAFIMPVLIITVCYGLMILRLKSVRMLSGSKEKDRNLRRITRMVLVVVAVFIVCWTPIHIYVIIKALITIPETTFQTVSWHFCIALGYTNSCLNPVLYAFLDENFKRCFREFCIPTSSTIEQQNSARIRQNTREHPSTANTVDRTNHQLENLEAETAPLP", "assay": "cell-based"}, "[6]": {"biological_target": "T3, mKOR", "assay": "biochemical", "remark": "listed apart in the source"}, "[7]": {"biological_target": "T5, DOR (Homo sapiens, UniProt P41143)", "T5 sequence (P41143 whole entry)": "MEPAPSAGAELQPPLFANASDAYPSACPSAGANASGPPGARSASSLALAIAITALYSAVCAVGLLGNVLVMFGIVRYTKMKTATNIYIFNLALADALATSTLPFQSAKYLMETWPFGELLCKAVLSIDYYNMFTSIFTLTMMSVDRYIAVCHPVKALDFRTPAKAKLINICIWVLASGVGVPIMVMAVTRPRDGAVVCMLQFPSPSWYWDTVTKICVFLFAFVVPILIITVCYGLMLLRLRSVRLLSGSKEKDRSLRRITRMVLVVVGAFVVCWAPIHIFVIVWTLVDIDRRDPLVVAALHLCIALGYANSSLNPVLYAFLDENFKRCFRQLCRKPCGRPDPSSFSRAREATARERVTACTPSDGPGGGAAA", "assay": "cell-based", "conditions": "for EC50: Tango"}, "[8]": {"biological_target": "T6, MOR (Homo sapiens, UniProt P35372)", "T6 sequence (P35372 whole entry)": "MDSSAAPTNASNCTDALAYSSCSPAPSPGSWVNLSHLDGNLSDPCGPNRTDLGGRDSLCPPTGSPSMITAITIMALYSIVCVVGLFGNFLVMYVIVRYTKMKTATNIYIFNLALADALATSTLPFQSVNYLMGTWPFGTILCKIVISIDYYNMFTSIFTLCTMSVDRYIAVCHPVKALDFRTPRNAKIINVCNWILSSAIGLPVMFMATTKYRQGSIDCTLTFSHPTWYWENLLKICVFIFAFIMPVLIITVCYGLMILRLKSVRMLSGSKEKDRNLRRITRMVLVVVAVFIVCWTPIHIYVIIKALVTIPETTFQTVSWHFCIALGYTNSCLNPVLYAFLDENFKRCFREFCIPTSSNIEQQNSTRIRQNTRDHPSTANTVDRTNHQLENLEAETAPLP", "assay": "cell-based", "conditions": "HEK-293T, read-out: Emax% cAMP inhibition hMOR"}, "[9]": {"biological_target": "T5, DOR", "assay": "cell-based"}, "[10]": {"biological_target": "T2, KOR"}, "[11]": {"biological_target": "T7, rKOR (Rattus norvegicus, UniProt P34975)", "T7 sequence (P34975 whole entry)": "as the sequence (P33534 whole entry) above, with D11E, S17A, S51P, A308V counted along it", "assay": "cell-based"}, "[12]": {"biological_target": "T6, MOR"}, "[13]": {"biological_target": "T7, rKOR", "conditions": "BRET, rodent receptors"}, "[14]": {"tested_on": "MOR KO, KOR KO and DOR KO mice", "assay": "55°C warm-water tail-withdrawal assay in opioid receptor knock out mice", "type": "in vivo, mouse"}, "[15]": {"biological_target": "T4, mMOR", "assay": "biochemical"}, "[16]": {"biological_target": "Y312W-hKOR (Homo sapiens, UniProt P41145, Y312W)", "sequence (P41145 whole entry Y312W)": "as the sequence (P41145 whole entry) above, with Y312W counted along it", "assay": "cell-based", "conditions": "read-out: Emax% cAMP inhibition Y312W-hKOR"}, "[17]": {"biological_target": "T4, mMOR", "assay": "biochemical", "remark": "listed apart in the source"}, "[18]": {"biological_target": "T1, mDOR", "conditions": "binding assays"}, "[19]": {"biological_target": "T2, KOR", "assay": "cell-based", "remark": "listed apart in the source"}, "[20]": {"biological_target": "T4, mMOR", "assay": "cell-based", "design": "expressed in transfected cells; host or cells: HEK-293T"}, "[21]": {"conditions": "transduction coefficient log(T/KA)"}, "[22]": {"conditions": "DOR KO mice, 100 nmol i.c.v., 40 min, single mice and mean (n=8)"}, "[23]": {"conditions": "DOR KO mice, 100 nmol i.c.v., 110 min, single mice and mean (n=8)"}, "[24]": {"conditions": "MOR KO mice, 100 nmol i.c.v., 60 min, single mice and mean (n=8)"}, "[25]": {"conditions": "MOR KO mice, 100 nmol i.c.v., 70 min, single mice and mean (n=8)"}, "[26]": {"conditions": "MOR KO mice, 100 nmol i.c.v., 80 min, single mice and mean (n=8)"}, "[27]": {"conditions": "MP1207 30 nmol icv, MP1208 35 nmol icv"}},
  "note": "Several values for one entry are separate records, joined by “and”; a condition that tells them apart may be missing. Identical values can stand only once. Like-named read-outs stand apart in the source and are kept apart here.",
  "data": [
    {"smiles": "N=C(N)NCc1cccc(C(=O)N[C@@H]2CCC3C4Cc5ccc(O)c6c5[C@@]3(CCN4CC3CC3)C2O6)c1", "note": "(stereo partly drawn) [MP1208, N-((7R,12bS)−3-(Cyclopropylmethyl)−9-hydroxy-2,3,4,4a,5,6,7,7a-octahydro-1H-4,12-methanobenzofuro[3,2-e]isoquinolin-7-yl)−3-(guanidinomethyl)benzamide]", "values": [
      {"measurement": "Emax", "setting": "[1]", "result": "10 to 15", "unit": "%"},
      {"measurement": "EC50", "setting": "[2]; EC50 G protein activation (BRET) mDOR", "result": 26.6, "unit": "nM"},
      {"measurement": "Emax", "setting": "[2]; HEK-293T, read-out: Emax% G protein activation (BRET) mDOR", "result": "58 ± 3.3", "unit": "%"},
      {"measurement": "EC50", "setting": "[3]; EC50 arrestin recruitment (Tango) hKOR", "result": 16.4, "unit": "nM"},
      {"measurement": "Emax", "setting": "[3]; HTLA, read-out: Emax% arrestin recruitment (Tango) hKOR", "result": "48 ± 2.4", "unit": "%"},
      {"measurement": "EC50", "setting": "[3]; pEC50 arrestin recruitment (Tango) hKOR, ± SEM", "result": 16.2, "unit": "nM"},
      {"measurement": "EC50", "setting": "[4]; EC50 mKOR [35S]GTPγS, ± SEM", "result": "1.4 nM and 1.36 nM"},
      {"measurement": "Emax", "setting": "[4]; read-out: Emax mKOR [35S]GTPγS", "result": "43 ± 0.8", "unit": "%"},
      {"measurement": "EC50", "setting": "[5]; EC50 G protein activation (BRET) mMOR", "result": 2.27, "unit": "nM"},
      {"measurement": "Emax", "setting": "[5]; HEK-293T, read-out: Emax% G protein activation (BRET) mMOR", "result": "41 ± 3", "unit": "%"},
      {"measurement": "Ki", "setting": "[6]", "result": "0.28 ± 0.02", "unit": "nM"},
      {"measurement": "EC50", "setting": "[7]; EC50 arrestin recruitment hDOR", "result": 3620, "unit": "nM"},
      {"measurement": "Emax", "setting": "[7]; HTLA, read-out: Emax% arrestin recruitment hDOR", "result": "62 ± 16.7", "unit": "%"},
      {"measurement": "EC50", "setting": "[7]; pEC50 arrestin recruitment hDOR, ± SEM", "result": 3160, "unit": "nM"},
      {"measurement": "Emax", "setting": "[8]", "result": "42 ± 1.3", "unit": "%"},
      {"measurement": "EC50", "setting": "[9]; EC50 cAMP inhibition hDOR", "result": 2.49, "unit": "nM"},
      {"measurement": "Emax", "setting": "[9]; HEK-293T, read-out: Emax% cAMP inhibition hDOR", "result": "39 ± 1.8", "unit": "%"},
      {"measurement": "ΔΔlog RA (cAMP-Tango) hKOR", "setting": "[10]", "result": "1.35±0.022"},
      {"measurement": "Bias factor (cAMP-Tango) hKOR", "setting": "[10]; >1 G protein bias, <1 arrestin bias, vs U50,488h", "result": 22},
      {"measurement": "Log RA cAMP hKOR", "setting": "[10]; [21]", "result": "9.83±0.004"},
      {"measurement": "LogRA Tango hKOR", "setting": "[10]; [21]", "result": "7.447±0.020"},
      {"measurement": "ΔlogRA Tango hKOR", "setting": "[10]; vs U50,488h", "result": "-0.697±0.022"},
      {"measurement": "ΔlogRA cAMP hKOR", "setting": "[10]; vs U50,488h", "result": "0.65±0.005"},
      {"measurement": "EC50", "setting": "[11]", "result": 1.07, "unit": "nM"},
      {"measurement": "Emax", "setting": "[11]; HEK-293T, read-out: Emax% G protein activation (BRET) rKOR", "result": "40 ± 2.4", "unit": "%"},
      {"measurement": "arrestin recruitment at hMOR (in words)", "setting": "[12]", "result": "completely abolished"},
      {"measurement": "arrestin recruitment at rKOR (in words)", "setting": "[13]", "result": "No recruitment of βarrestin-2"},
      {"measurement": "30 min (tail-withdrawal latency)", "setting": "[14]; DOR KO mice, 100 nmol i.c.v., 30 min, single mice and mean (n=8)", "result": "15 s and 8 s and 14.125 s"},
      {"measurement": "40 min (tail-withdrawal latency)", "setting": "[14]; [22]", "result": "15 s and 14.7 s and 12.1 s and 14.6 s"},
      {"measurement": "%A-40 min (% antinociception)", "setting": "[14]; [22]", "result": "100% and 97.83% and 77.34% and 96.8962%"},
      {"measurement": "%A-100 min (% antinociception)", "setting": "[14]; DOR KO mice, 100 nmol i.c.v., 100 min, single mice and mean (n=8)", "result": "0% and 3.7% and 0.72% and 6.25% and 1.334%"},
      {"measurement": "110 min (tail-withdrawal latency)", "setting": "[14]; [23]", "result": "1.4 s and 1.9 s and 1.3 s and 1.6 s and 1.5 s and 2.2 s and 1.5625 s"},
      {"measurement": "%A-110 min (% antinociception)", "setting": "[14]; [23]", "result": "0% and 2.96% and 2.9% and 0.7325%"},
      {"measurement": "60 min (tail-withdrawal latency)", "setting": "[14]; [24]", "result": "1.3 s and 1.2 s and 1.5 s and 1.7 s and 1.4 s and 1.4375 s"},
      {"measurement": "%A-60 min (% antinociception)", "setting": "[14]; [24]", "result": "0% and 2.17% and 3.62% and 2.16% and 1.446%"},
      {"measurement": "70 min (tail-withdrawal latency)", "setting": "[14]; [25]", "result": "1.3 s and 1.4 s and 1.8 s and 1.2 s and 1.35 s"},
      {"measurement": "%A-70 min (% antinociception)", "setting": "[14]; [25]", "result": "0% and 0.72% and 2.94% and 0.7275%"},
      {"measurement": "80 min (tail-withdrawal latency)", "setting": "[14]; [26]", "result": "1.3 s and 1.1 s and 1.9 s and 1.2 s and 1.2875 s"},
      {"measurement": "%A-80 min (% antinociception)", "setting": "[14]; [26]", "result": "0% and 5.07% and 0.72% and 0.7238%"},
      {"measurement": "antinociception in DOR KO mice vs WT", "setting": "[14]; [27]", "result": "remained intact"},
      {"measurement": "antinociception in KOR KO mice vs WT", "setting": "[14]; [27]", "result": "attenuated"},
      {"measurement": "antinociception in MOR KO mice vs WT", "setting": "[14]; [27]", "result": "attenuated"},
      {"measurement": "EC50", "setting": "[15]; EC50 mMOR [35S]GTPγS, ± SEM", "result": "1.1 nM and 1.13 nM"},
      {"measurement": "Emax", "setting": "[15]; read-out: Emax mMOR [35S]GTPγS", "result": "54 ± 0.7", "unit": "%"},
      {"measurement": "Emax", "setting": "[16]", "result": "97 ± 1", "unit": "%"},
      {"measurement": "Ki", "setting": "[17]", "result": "0.34 ± 0.01", "unit": "nM"},
      {"measurement": "selectivity for MOR and KOR over DOR", "setting": "[18]", "result": "more than 40 fold"},
      {"measurement": "EC50", "setting": "[19]; EC50 cAMP inhibition hKOR", "result": 0.14, "unit": "nM"},
      {"measurement": "Emax", "setting": "[19]; HEK-293T, read-out: Emax% cAMP inhibition hKOR", "result": "96 ± 1.9", "unit": "%"},
      {"measurement": "arrestin recruitment at mMOR (in words)", "setting": "[20]", "result": "No recruitment of βarrestin-2"}
    ]}
  ]
}
